Columns and labels:
Experiment in all cases: relative viability (nuclei count vs DMSO), 5 days (fraction); higher = more cells survive
Idelalisib + AZD7762 = compound: CC[C@H](Nc1ncnc2[nH]cnc12)c1nc2cccc(F)c2c(=O)n1-c1ccccc1 [Idelalisib] + NC(=O)Nc1cc(-c2cccc(F)c2)sc1C(=O)N[C@H]1CCCNC1 [AZD7762] (partner 0.2 µM)
Method in brief: (§1)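 Dosing by pin tool came one day after lung cancer cell lines were seeded in 1536-well plates, using either one drug or a fixed anchor-drug dose plus five library-drug doses (not always all listed) in √10 steps. After 5 days, nuclei were counted on 4× images. Relative viability is treated-well nuclei count divided by vehicle-well nuclei count, and values are medians of duplicate plates.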

Pemetrexed + Dasatinib = compound: Nc1nc2[nH]cc(CCc3ccc(C(=O)N[C@@H](CCC(=O)O)C(=O)O)cc3)c2c(=O)[nH]1 [Pemetrexed] + Cc1nc(Nc2ncc(C(=O)Nc3c(C)cccc3Cl)s2)cc(N2CCN(CCO)CC2)n1 [Dasatinib] (partner 0.075 µM)
Method in brief: as §1

Pemetrexed + Foretinib = compound: Nc1nc2[nH]cc(CCc3ccc(C(=O)N[C@@H](CCC(=O)O)C(=O)O)cc3)c2c(=O)[nH]1 [Pemetrexed] + COc1cc2c(Oc3ccc(NC(=O)C4(C(=O)Nc5ccc(F)cc5)CC4)cc3F)ccnc2cc1OCCCN1CCOCC1 [Foretinib] (partner 0.25 µM)
Method in brief: as §1

Idelalisib + Lapatinib = compound: CC[C@H](Nc1ncnc2[nH]cnc12)c1nc2cccc(F)c2c(=O)n1-c1ccccc1 [Idelalisib] + CS(=O)(=O)CCNCc1ccc(-c2ccc3ncnc(Nc4ccc(OCc5cccc(F)c5)c(Cl)c4)c3c2)o1 [Lapatinib] (partner 2 µM)
Method in brief: as §1

Cell Line | relative viability (Idelalisib + AZD7762; first compound 0.04 µM) | relative viability (Idelalisib + AZD7762; first compound 0.1265 µM) | relative viability (Idelalisib + AZD7762; first compound 0.4 µM) | relative viability (Idelalisib + AZD7762; first compound 1.265 µM) | relative viability (Idelalisib + AZD7762; first compound 4 µM) | relative viability (Pemetrexed + Dasatinib; first compound 0.002 µM) | relative viability (Pemetrexed + Dasatinib; first compound 0.006325 µM) | relative viability (Pemetrexed + Dasatinib; first compound 0.02 µM) | relative viability (Pemetrexed + Dasatinib; first compound 0.06325 µM) | relative viability (Pemetrexed + Dasatinib; first compound 0.2 µM) | relative viability (Pemetrexed + Foretinib; first compound 0.002 µM) | relative viability (Pemetrexed + Foretinib; first compound 0.006325 µM) | relative viability (Pemetrexed + Foretinib; first compound 0.02 µM) | relative viability (Pemetrexed + Foretinib; first compound 0.06325 µM) | relative viability (Pemetrexed + Foretinib; first compound 0.2 µM) | relative viability (Idelalisib + Lapatinib; first compound 0.04 µM) | relative viability (Idelalisib + Lapatinib; first compound 0.1265 µM) | relative viability (Idelalisib + Lapatinib; first compound 0.4 µM) | relative viability (Idelalisib + Lapatinib; first compound 1.265 µM) | relative viability (Idelalisib + Lapatinib; first compound 4 µM)
NCI-H522 | 0.857 | 0.909 | 0.849 | 0.745 | 0.851 | 0.881 | 0.822 | 0.967 | 0.848 | 0.933 | – | – | – | – | – | – | – | – | – | –
NCI-H1623 | – | – | – | – | – | 0.511 | 0.539 | 0.458 | 0.517 | 0.509 | 0.794 | 0.831 | 0.861 | 0.848 | 0.769 | – | – | – | – | –
NCI-H2228 | – | – | – | – | – | 0.444 | – | 0.472 | 0.337 | 0.2 | 0.71 | – | 0.993 | 0.633 | 0.302 | 1.21 | 1.14 | 0.875 | 1.23 | 1.03
NCI-H1299 | – | – | – | – | – | – | – | – | – | – | 1.08 | 1.15 | 1.12 | 1.09 | 0.595 | 0.927 | 0.977 | 0.943 | 1.09 | 1.02
LCLC-103H | 0.757 | 0.809 | 0.724 | 0.786 | 0.652 | 0.43 | 0.508 | 0.55 | 0.436 | 0.489 | 0.719 | 0.666 | 0.833 | 0.725 | 0.802 | – | – | – | – | –
Calu-6 | – | – | – | – | – | – | – | – | – | – | 0.821 | 0.877 | 0.95 | 0.888 | 0.845 | 1.04 | 1.06 | 1.05 | 1.02 | 1.06
